Here are results for two substances from EP0386076B1, “PHOSPHORYLED DERIVATIVES OF CARDIODILATINE/ANF PEPTIDES” (FORSSMANN, Wolf-Georg, Prof. Dr. med., priority 1987, dated 1993).

Ends that are not written are not given here.

Experiment [1] deals with c-AMP-abhängiger Proteinkinase. The conditions noted are these: peptide as substrate of c-AMP-abhängiger Proteinkinase; read-out: Michaeliskonstante Km; cited from earlier work.
Experiment [2] relates to Muskelstreifen von Kaninchenaorta. The experiment is described as follows: Relaxation of norepinephrine-precontracted rabbit aorta muscle strips in an organ bath. Further details: species or system Neuseeland-Kaninchen.
From the text: Muskelstreifen von Kaninchenaorta wurden zunächst mit einer Lösung von Norepinephrin (10⁻⁷ M) kontrahiert. Nachdem sich konstante Bedingungen eingestellt hatten, wurden die Peptide hinzugefügt (Position des Pfeils).
Die Abbildung 6 zeigt die Reaktion von Kaninchenaorta-Muskelstreifen auf die schrittweise Zugabe von nicht phosphoryliertem, phosphoryliertem und danach wieder nicht phosphoryliertem Alpha-hANaP (CDD-28). Die Verbindungen wurden jeweils so zugegeben, daß sie im Untersuchungsbad in einer Endkonzentration von 0,3 x 10⁻⁹ M vorlagen.
Aortae von Neuseeland-Kaninchen wurden präpariert. Die Muskelspannung wurde an Muskelstreifen in einem Organbad, enthaltend physiologische Kochsalzlösung, gemessen. Die Streifen wurden vorkontrahiert mit einer Lösung von 10⁻⁶ M Norepinephrin, danach bei vollständiger Relaxation. Für den Assay wurde eine weitere Kontraktion mit 10⁻⁷ M Norepinephrin ausgelöst. Nachdem konstante Kontraktionsbedingungen erreicht waren, wurden die Peptide appliziert.
Zur Kontrolle wurde nicht phosphoryliertes Alpha-hANaP unter gleichen Bedingungen inkubiert, jedoch ohne Anwesenheit von ATP. Phosphoryliertes und nicht phosphoryliertes Alpha-hANaP wurde zu den vorkontrahierten Kaninchenaorta-Muskelstreifen gegeben, so daß sie in einer Endkonzentration von 0,3 x 10⁻⁹ M vorlagen. […]

A word on the Km: it is the concentration of substrate that gives half-maximal velocity. As for Arg¹⁰¹-Tyr¹²⁶, in experiment [1], the Km is 0.5 µM.
Turning to “phosphorylierte CDD-32: CDD-32 (Urodilatin, ANF/CDD-95-126) phosphorylated according to Beispiel 1; Formel I with R = Aminosäuren 95-98 (TAPRSLRRSSCFGGRMDRIGAQSGLGCNSFRY; ends and bridges not checked; also: phosphorylated (phosphate group), site not given here; UniProt P01160 120-151, looked up, fragment)”, the “relatives Relaxationsvermögen” value in experiment [2] (Abbildung 7, phosphorylated versus non-phosphorylated form at corresponding concentration) is “deutlich geringeres Relaxationsvermögen”. For the same substance, in experiment [2] (Beispiel 6, tested analogously to Beispiel 5, several concentrations), the Relaxationsaktivität entry was “deutlich geringere Relaxation”.
